Assay results as given in patent US8003660B2, “Modulators of muscarinic receptors” (Vertex Pharmaceuticals Incorporated, priority 2006, dated 2011).
Where two headings read alike, the source gives them in different places.

Assays:
Assay type in all cases: cell-based
[1] = biological target: T1, M3 muscarinic receptor (Homo sapiens, UniProt P20309); test: Functional mobilization of intracellular calcium (FLIPR) in CHO cells expressing M3; settings: for EC50: CHO cells expressing M3, FLIPR calcium; for Emax: CHO
T1 construct: expressed in transfected cells; host or cells: CHO (M3-CHO)
T1 sequence (P20309 whole entry): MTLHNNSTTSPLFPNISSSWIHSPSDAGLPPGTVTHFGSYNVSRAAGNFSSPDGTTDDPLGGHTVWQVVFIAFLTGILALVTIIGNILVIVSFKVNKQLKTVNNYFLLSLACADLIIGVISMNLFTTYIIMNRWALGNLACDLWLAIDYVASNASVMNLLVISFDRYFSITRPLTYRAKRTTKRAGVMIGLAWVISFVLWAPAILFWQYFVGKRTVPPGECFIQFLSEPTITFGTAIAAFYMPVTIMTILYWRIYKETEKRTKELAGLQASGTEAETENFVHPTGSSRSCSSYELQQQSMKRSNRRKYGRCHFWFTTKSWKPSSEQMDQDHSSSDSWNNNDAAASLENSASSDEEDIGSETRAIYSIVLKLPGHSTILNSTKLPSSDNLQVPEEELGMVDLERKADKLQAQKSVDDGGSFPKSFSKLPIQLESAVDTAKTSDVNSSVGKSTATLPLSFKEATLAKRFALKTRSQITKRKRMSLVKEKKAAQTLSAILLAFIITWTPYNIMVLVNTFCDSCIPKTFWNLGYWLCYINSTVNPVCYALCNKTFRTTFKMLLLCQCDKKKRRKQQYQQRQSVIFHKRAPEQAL
Experimental: (§1) Functional Mobilization of Intracellular Calcium to Determine Muscarinic Receptor Activity:
(§2) CHO cells expressing muscarinic receptors (M1 to M5) are grown as monolayers in tissue culture flasks at 37° C. in a humidified atmosphere containing 5% CO2 and passaged every 3-5 days. The growth media is Dulbecco's modified eagles medium (DMEM, Gibco Cat# 12430-054), containing 25 mM Hepes and supplemented with Fetal Bovine Serum (Hyclone, cat# SH30071.03), 0.1 mM of MEM non-essential amino acids (GIBCO, Cat# 11140-050), 1 mM MEM Sodium Pyruvate (GIBCO Cat# 11360-070) and 100 units/ml of Penicillin G and 100 μg/ml of Streptomycin (GIBCO Cat# 15140-122). The recombinant muscarinic receptor cell lines are grown under antibiotic pressure with media containing 25 μg/ml zeocin and 500 μg/ml G418 (M1-CHO), 4 μg/ml puromycin, 50 μg/ml zeocin and 2.5 μg/ml blasticidin (M2 and M4-CHO) or 50 μg/ml zeocin and 4 μg/ml puromycin (M3 and M5-CHO).
(§3) Cells are harvested at 80-90% confluence using Versene (GIBCO Cat# 15040-066), collected by centrifugation and seeded 18-24 hrs prior to running the calcium assay at a density of 5,000-10,000 cells/well in […], clear-bottomed 384-well plates (BD Biocoat, poly-D-lysine, Cat#356663). The day of the experiment, the cells are washed with a plate washer (Bioteck Instruments, ELX 405) using bath 1 buffer (140 mM NaCl, 4,5 mM KCl, 2 mM CaCl2, 1 mM MgCl2, 10 mM Hepes-Na, 10 mM Glucose, pH 7.4, with NaOH) containing 1 mM Probenecid. Next, the calcium dye Fluo-3 (25 μl/well of Fluo-3 AM at 4 μM, Molecular Probes F-1241, in Bath 1 buffer containing 1 mM Probenecid) is added to the 25 μl of Bath 1 remaining in each well after the plate wash and the dye is loaded at 37° C. in the tissue culture incubator for 60-90 min. The fluorescent dye is removed using the plate washer with Bath 1 containing 1 mM Probenecid, leaving 25 μl/well of this solution after the wash. Alternatively, cells can be loaded with the calcium indicator from Molecular Devices (Calcium 3 Assay Reagents, Cat #R7181) adding 5 μl of a 5× solution dye in Bath 1 containing 1 mM Probenecid (10 ml per dye flask cat#R7182 to generate a solution […]) to 20 μl of the same buffer. After loading for 60 min, the experiment can be run without having to remove the dye.
(§4) Compounds are prepared at a 2× fold concentration in a 96-well plate (round bottom, Costar Corning cat#3656), by reconstituting the pre-spotted compounds in bath 1 containing 1 mM probenecid. The final concentration DMSO is 0.5%, and the amount of DMSO is normalized across the assay plate. To determine an agonist action of the compounds on muscarinic receptors, the reconstituted compounds are added (25 μl compound/well) to the cell assay plate (containing 25 μl/well) using the multi-channel robotic system of the FLIPR 3 Instrument (Molecular Devices, Sunnyvale, Calif.). To determine a functional inhibitory action of the compounds on muscarinic receptors, the reconstituted compounds are added (25 μl compound/well) to the assay plate and pre-incubated for 15 min prior to adding 25 μl of Carbachol at 3× the EC80 for each muscarinic subtype. Alternatively, the compounds can be co-applied simultaneously with the agonist. In both assay modes, the fluorescence is recorded for 60 sec (excitation wavelength is […] and emission wavelength 540 nm) using the FLIPR 3 instrument.
(§5) The potency, efficacy and selectivity of the muscarinic compounds were evaluated by screening the compound activity across the whole family (M1 to M5 cells). Compounds were also screened for activity on other proteins such as other GPCRs and ion channels to determine selectivity on M4 receptors.

[2] = biological target: T2, M2 muscarinic receptor (Homo sapiens, UniProt P08172); test: Functional mobilization of intracellular calcium (FLIPR) in CHO cells expressing M2; settings: for EC50: CHO cells expressing M2, FLIPR calcium; for Emax: CHO; for M2 Activity: CHO cells expressing M2, FLIPR calcium assay
T2 construct: expressed in transfected cells; host or cells: CHO (M2-CHO)
T2 sequence (P08172 1-466): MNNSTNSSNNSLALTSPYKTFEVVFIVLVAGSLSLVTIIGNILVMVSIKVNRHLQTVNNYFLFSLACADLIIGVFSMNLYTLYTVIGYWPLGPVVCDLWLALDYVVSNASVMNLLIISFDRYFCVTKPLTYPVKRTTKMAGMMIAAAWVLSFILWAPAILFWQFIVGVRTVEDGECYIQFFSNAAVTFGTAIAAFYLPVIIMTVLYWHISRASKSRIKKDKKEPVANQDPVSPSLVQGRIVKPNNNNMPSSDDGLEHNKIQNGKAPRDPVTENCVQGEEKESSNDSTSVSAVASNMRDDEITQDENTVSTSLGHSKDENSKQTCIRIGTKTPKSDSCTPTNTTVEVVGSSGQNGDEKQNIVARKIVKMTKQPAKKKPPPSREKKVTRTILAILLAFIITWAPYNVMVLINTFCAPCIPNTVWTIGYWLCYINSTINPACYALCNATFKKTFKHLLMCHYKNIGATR
Experimental: as §1, §2, §3, §4, §5

[3] = biological target: T3, M4 muscarinic receptor (Homo sapiens, UniProt P08173); test: Functional mobilization of intracellular calcium (FLIPR) in CHO cells expressing M4; settings: for EC50: CHO cells expressing M4, FLIPR calcium; for Emax: CHO; for M4 Activity: CHO cells expressing M4, FLIPR calcium assay
T3 construct: expressed in transfected cells; host or cells: CHO (M4-CHO)
T3 sequence (P08173 1-479): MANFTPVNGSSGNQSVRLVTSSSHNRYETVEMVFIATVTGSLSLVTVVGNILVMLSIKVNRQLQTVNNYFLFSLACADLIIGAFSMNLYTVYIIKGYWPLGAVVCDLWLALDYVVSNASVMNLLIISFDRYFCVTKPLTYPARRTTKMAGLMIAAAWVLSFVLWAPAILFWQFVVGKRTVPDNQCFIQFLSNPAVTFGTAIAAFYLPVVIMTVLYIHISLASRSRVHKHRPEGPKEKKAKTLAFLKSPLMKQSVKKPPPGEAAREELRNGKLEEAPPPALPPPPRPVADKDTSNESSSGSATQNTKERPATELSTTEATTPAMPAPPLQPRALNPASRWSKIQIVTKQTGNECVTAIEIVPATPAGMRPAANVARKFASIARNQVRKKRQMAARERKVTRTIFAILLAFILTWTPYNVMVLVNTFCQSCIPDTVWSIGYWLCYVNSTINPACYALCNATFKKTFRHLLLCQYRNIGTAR
Experimental: as §1, §2, §3, §4, §5

[4] = biological target: T4, M1 muscarinic receptor (Homo sapiens, UniProt P11229); test: Functional mobilization of intracellular calcium (FLIPR) in CHO cells expressing M1; settings: for EC50: CHO cells expressing M1, FLIPR calcium; for Emax: CHO; for M1 Activity: CHO cells expressing M1, FLIPR calcium assay
T4 construct: expressed in transfected cells; host or cells: CHO (M1-CHO)
T4 sequence (P11229 1-460): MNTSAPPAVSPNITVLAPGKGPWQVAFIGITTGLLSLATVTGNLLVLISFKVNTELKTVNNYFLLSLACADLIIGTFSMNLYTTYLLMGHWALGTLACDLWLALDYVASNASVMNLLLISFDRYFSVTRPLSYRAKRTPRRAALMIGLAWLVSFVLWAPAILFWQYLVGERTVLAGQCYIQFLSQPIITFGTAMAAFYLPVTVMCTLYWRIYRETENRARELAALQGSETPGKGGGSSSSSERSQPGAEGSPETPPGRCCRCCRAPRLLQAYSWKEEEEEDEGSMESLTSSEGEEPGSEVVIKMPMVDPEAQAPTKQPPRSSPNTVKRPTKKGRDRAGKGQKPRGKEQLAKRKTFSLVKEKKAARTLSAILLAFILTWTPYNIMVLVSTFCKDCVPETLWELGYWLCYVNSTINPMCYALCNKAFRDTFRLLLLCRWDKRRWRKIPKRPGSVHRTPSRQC
Experimental: as §1, §2, §3, §4, §5

[5] = 100% = maximum response obtained with the Carbachol control, read-out: M3 Efficacy
[6] = 100% = maximum response obtained with the Carbachol control, read-out: M2 Efficacy
[7] = 100% = maximum response obtained with the Carbachol control, read-out: M4 Efficacy
[8] = 100% = maximum response obtained with the Carbachol control, read-out: M1 Efficacy
[9] = 100% efficacy = maximum response obtained with the Carbachol control

Row | SMILES | EC50 [1] | Emax [1, 5] | EC50 [2] | Emax [2, 6] | EC50 [3] | Emax [3, 7] | EC50 [4] | Emax [4, 8] | M3 Activity ([1]; CHO cells expressing M3, FLIPR calcium assay) | Emax [1, 9] | M2 Activity [2] | Emax [2, 9] | M4 Activity [3] | Emax [3, 9] | M1 Activity [4] | Emax [4, 9]
1 | CC(=O)N[C@H]1CCC2(CCN(CCC(C)CC(C)(C)C)CC2)c2ccccc21 (stereo partly shown) [compound 45] | > 5000 nM | 25 to 100% | 2000 to 5000 nM | < 25% | > 5000 nM | < 25% | < 2000 nM | 25 to 100% | – | – | – | – | – | – | – | –
2 | Cc1cc(C(=O)N[C@H]2CCC3(CCN(CCC(C)(C)C)CC3)c3ccccc32)nn1C [compound 151] | > 5000 nM | < 25% | > 5000 nM | < 25% | < 2000 nM | 25 to 100% | < 2000 nM | 25 to 100% | – | – | – | – | – | – | – | –
3 | CC(C)(C)CCN1CCC2(CC1)C[C@H](NC(=O)N1CCCC1)c1ccccc12 [compound 251] | – | – | – | – | – | – | – | – | + (activity was measured to be greater than 5.0 μM) | < 25% | + (activity was measured to be greater than 5.0 μM) | < 25% | + (activity was measured to be greater than 5.0 μM) | < 25% | + (activity was measured to be greater than 5.0 μM) | < 25%
4 | C[C@@H](C(=O)N[C@H]1CCC2(CCN(CCC(C)(C)C)CC2)c2cc(F)ccc21)N1CCCC1=O [compound 106] | > 5000 nM | < 25% | < 2000 nM | 25 to 100% | < 2000 nM | 25 to 100% | < 2000 nM | 25 to 100% | – | – | – | – | – | – | – | –
5 | CC(=O)N1CCCC[C@H]1C(=O)N[C@@H]1CCC2(CCN(CCC(C)(C)C)CC2)c2cc(F)ccc21 [compound 72] | > 5000 nM | < 25% | 2000 to 5000 nM | < 25% | < 2000 nM | 25 to 100% | 2000 to 5000 nM | 25 to 100% | – | – | – | – | – | – | – | –
6 | C[C@H](N[C@H]1CC2(CCN(C(=O)OC(C)(C)C)CC2)c2ccccc21)c1ccccc1 [compound 275] | – | – | – | – | – | – | – | – | – | – | + (activity was measured to be greater than 5.0 μM) | < 25% | + (activity was measured to be greater than 5.0 μM) | < 25% | + (activity was measured to be greater than 5.0 μM) | < 25%
